Earlier results as cited in patent US10631556B2, “Method for conducing concentrated cannabis oil to be stable, emulsifiable and flavorless for use in hot beverages and resulting powderized cannabis oil” (Pivot Naturals, LLC., priority 2015, dated 2020).

Assays:
Mice [1] = test system: Mice
Mice [2] = conditions: odor inhaled from ambient air for 1 hour
[3] = mice, odor inhaled from ambient air for 1 hour
[4] = inhalation
CYP 2C9 = CYP 2C9 (Homo sapiens, UniProt P11712); conditions: anecdotal online article
CYP 2C9, sequence (P11712 whole entry): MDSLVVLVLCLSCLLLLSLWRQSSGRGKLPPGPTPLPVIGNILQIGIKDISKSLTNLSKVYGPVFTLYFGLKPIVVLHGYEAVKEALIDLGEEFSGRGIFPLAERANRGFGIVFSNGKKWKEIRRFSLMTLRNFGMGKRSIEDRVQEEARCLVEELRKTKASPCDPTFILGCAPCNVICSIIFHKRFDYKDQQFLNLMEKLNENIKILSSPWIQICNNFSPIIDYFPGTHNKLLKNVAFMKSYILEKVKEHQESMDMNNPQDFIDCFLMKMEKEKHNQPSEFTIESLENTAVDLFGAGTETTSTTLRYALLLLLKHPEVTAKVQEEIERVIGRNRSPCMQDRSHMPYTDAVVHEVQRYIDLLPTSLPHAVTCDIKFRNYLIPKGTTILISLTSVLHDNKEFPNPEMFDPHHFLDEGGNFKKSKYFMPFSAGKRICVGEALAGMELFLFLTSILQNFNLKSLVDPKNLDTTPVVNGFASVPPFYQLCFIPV

In the case of `C=CC(=C)CCC=C(C)C` [myrcene], the muscle relaxant effect (Mice [1]) is listed as “acted as a muscle relaxant” and the barbiturate sleep time (Mice [1]; high doses) is listed as “potentiated barbiturate sleep time”.
In the case of pinene, the “increase in mouse activity” value (Mice [2]) is given as 13.77%, the serum concentration [3] is given as “trace” and the human pulmonary uptake [4] is given as 60%.
In the case of `O=C(/C=C/C=C/c1ccc2c(c1)OCO2)N1CCCCC1` [Piperine], the “inhibition of CYP 2C9” value (CYP 2C9) is given as “strongly”.
In the case of `C=CC(C)(O)CCC=C(C)C` (centres unmarked) [linalool], the reduction in motility (Mice [2]) is listed as 73% and the serum concentration [3] is listed as 4.22 ng/mL.
For `CCCCCc1cc(O)c2c(c1)OC(C)(C)[C@@H]1CCC(C)=C[C@@H]21` [THC, tetrahydrocannabinol], the “solubility in most organic solvents” value (organic solvents, specifically lipids and alcohols) is given as “good” and the solubility in water (water) is given as “very low”.
In the case of `C=C(C)[C@H]1CC=C(C)CC1` [Limonene], the human pulmonary uptake [4] is given as 70%.
